Laboratory results: PMC6018617, “Probing GABAA receptors with inhibitory neurosteroids” (Neuropharmacology, 2018)

How the values were obtained:
α6β2δ [1] = target: T1, α6β2δ (Mus musculus, UniProt P16305+P22933+P63137); assay: whole-cell patch clamp, HEK cells, Hill fit; format: cell-based
T1 construct: gene Gabra6; full-length subunits in pRK5, co-expressed in HEK cells; heteropentamer; with Gamma-aminobutyric acid receptor subunit delta
Description: whole-cell patch clamp, HEK cells, Hill fit on α6β2δ

α3β2γ2L [2] = target: T2, α3β2γ2L (Mus musculus, UniProt P22723+P26049+P63137); assay: whole-cell patch clamp, HEK cells, Hill fit; format: cell-based
T2 construct: gene Gabra3; full-length subunits in pRK5, co-expressed in HEK cells; heteropentamer; with Gamma-aminobutyric acid receptor subunit gamma-2
Description: whole-cell patch clamp, HEK cells, Hill fit on α3β2γ2L

α5β2γ2L = target: T3, α5β2γ2L (Mus musculus, UniProt P22723+P63137+Q8BHJ7); assay: whole-cell patch clamp, HEK cells; format: cell-based; details: read-out: PS IC50
T3 construct: gene Gabra5; full-length subunits in pRK5, co-expressed in HEK cells; heteropentamer; with Gamma-aminobutyric acid receptor subunit gamma-2
Description: whole-cell patch clamp, HEK cells on α5β2γ2L

α1β3γ2L = target: T4, α1β3γ2L (Mus musculus, UniProt P22723+P62812+P63080); assay: whole-cell patch clamp, HEK cells; format: cell-based; details: read-out: PS IC50
T4 construct: gene Gabra1; full-length subunits in pRK5, co-expressed in HEK cells; heteropentamer; with Gamma-aminobutyric acid receptor subunit gamma-2
Description: whole-cell patch clamp, HEK cells on α1β3γ2L

α6β2δ [3] = target: T1, α6β2δ; assay: whole-cell patch clamp, HEK cells; format: cell-based; details: read-out: PS IC50
Description: whole-cell patch clamp, HEK cells on α6β2δ

ρ1 [4] = target: T5, ρ1 (Homo sapiens, UniProt P24046, P315V); assay: whole-cell patch clamp, HEK cells; format: cell-based
T5 construct: gene GABRR1; full-length subunit in pRK5, HEK cells; homopentamer

α4β2δ = target: T6, α4β2δ (Mus musculus, UniProt P22933+P63137+Q9D6F4); assay: whole-cell patch clamp, HEK cells; format: cell-based; details: read-out: PS IC50
T6 construct: gene Gabra4; full-length subunits in pRK5, co-expressed in HEK cells; heteropentamer; with Gamma-aminobutyric acid receptor subunit delta
Description: whole-cell patch clamp, HEK cells on α4β2δ

α1β2γ2L [5] = target: T7, α1β2γ2L (Mus musculus, UniProt P22723+P62812+P63137); assay: whole-cell patch clamp, HEK cells; format: cell-based; details: read-out: PS IC50
T7 construct: gene Gabra1; full-length subunits in pRK5, co-expressed 1:1:1 in HEK cells; heteropentamer; with Gamma-aminobutyric acid receptor subunit gamma-2
Description: whole-cell patch clamp, HEK cells on α1β2γ2L

α1β2 = target: T8, α1β2 (Mus musculus, UniProt P62812+P63137); assay: whole-cell patch clamp, HEK cells; format: cell-based; details: read-out: PS IC50
T8 construct: gene Gabra1; full-length subunits in pRK5, co-expressed in HEK cells; heteropentamer without gamma
Description: whole-cell patch clamp, HEK cells on α1β2

ρ1-260-γ2S = system: T9, ρ1-260-γ2S; assay: whole-cell patch clamp, HEK cells; format: cell-based, Homo sapiens; Mus musculus; details: co-applied with GABA EC80 (200 μM)
T9 construct: gene GABRR1; single-chain fusion: human rho1 ECD to residue 260, mouse gamma2S TMD; homopentamer in HEK cells

ρ1 [6] = target: T10, ρ1 (Homo sapiens, UniProt P24046); assay: whole-cell patch clamp, HEK cells; format: cell-based; details: read-out: PS IC50
T10 construct: gene GABRR1; full-length subunit in pRK5, HEK cells; homopentamer
Description: whole-cell patch clamp, HEK cells on ρ1

ρ1-260-α1 = system: T11, ρ1-260-α1; assay: whole-cell patch clamp, HEK cells; format: cell-based, Homo sapiens; Mus musculus; details: steady-state current, co-applied with GABA EC80 (30 μM), pH 7.4, room temperature
T11 construct: gene GABRR1; single-chain fusion: human rho1 ECD to residue 260 (start of M1), mouse alpha1 TMD with linkers; homopentamer in HEK cells

β3 homomer = target: T12, β3 homomer (Mus musculus, UniProt P63080); assay: whole-cell patch clamp, HEK cells; format: cell-based; details: 100 μM PS co-applied with 500 μM pentobarbitone
T12 construct: gene Gabrb3; full-length subunit in pRK5, HEK cells; homopentamer

α3β2γ2L [7] = target: T2, α3β2γ2L; assay: whole-cell patch clamp, HEK cells; format: cell-based; details: read-out: PS IC50
Description: whole-cell patch clamp, HEK cells on α3β2γ2L

α1β2γ2L [8] = target: T13, α1β2γ2L (Mus musculus, UniProt P22723+P62812+P63137, P62812:V283S); assay: whole-cell patch clamp, HEK cells; format: cell-based
T13 construct: gene Gabra1; full-length subunits in pRK5, co-expressed 1:1:1 in HEK cells; heteropentamer; with Gamma-aminobutyric acid receptor subunit gamma-2

α2β2γ2L = target: T14, α2β2γ2L (Mus musculus, UniProt P22723+P26048+P63137); assay: whole-cell patch clamp, HEK cells; format: cell-based; details: read-out: PS IC50
T14 construct: gene Gabra2; full-length subunits in pRK5, co-expressed in HEK cells; heteropentamer; with Gamma-aminobutyric acid receptor subunit gamma-2
Description: whole-cell patch clamp, HEK cells on α2β2γ2L

α1β2γ2L [9] = target: T7, α1β2γ2L; assay: whole-cell patch clamp, HEK cells; format: cell-based; details: GABA EC100 (1 mM), PTX pre-applied then co-applied; text calls it picrotoxin, reagent list picrotoxinin

T2 sequence (P26049 29-492): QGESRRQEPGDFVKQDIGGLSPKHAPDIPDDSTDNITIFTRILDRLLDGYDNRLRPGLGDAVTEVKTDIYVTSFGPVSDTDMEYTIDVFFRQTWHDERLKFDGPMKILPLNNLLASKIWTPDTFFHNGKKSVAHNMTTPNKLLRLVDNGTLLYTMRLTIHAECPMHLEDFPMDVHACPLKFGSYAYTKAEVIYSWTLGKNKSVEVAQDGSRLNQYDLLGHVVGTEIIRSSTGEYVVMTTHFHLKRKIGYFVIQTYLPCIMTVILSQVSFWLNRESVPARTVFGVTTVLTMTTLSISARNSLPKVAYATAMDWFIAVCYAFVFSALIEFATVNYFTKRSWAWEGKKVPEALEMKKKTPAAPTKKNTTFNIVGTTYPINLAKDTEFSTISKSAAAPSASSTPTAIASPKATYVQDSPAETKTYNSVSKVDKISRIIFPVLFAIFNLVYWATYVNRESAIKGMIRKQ
T2 sequence (P63137 26-512): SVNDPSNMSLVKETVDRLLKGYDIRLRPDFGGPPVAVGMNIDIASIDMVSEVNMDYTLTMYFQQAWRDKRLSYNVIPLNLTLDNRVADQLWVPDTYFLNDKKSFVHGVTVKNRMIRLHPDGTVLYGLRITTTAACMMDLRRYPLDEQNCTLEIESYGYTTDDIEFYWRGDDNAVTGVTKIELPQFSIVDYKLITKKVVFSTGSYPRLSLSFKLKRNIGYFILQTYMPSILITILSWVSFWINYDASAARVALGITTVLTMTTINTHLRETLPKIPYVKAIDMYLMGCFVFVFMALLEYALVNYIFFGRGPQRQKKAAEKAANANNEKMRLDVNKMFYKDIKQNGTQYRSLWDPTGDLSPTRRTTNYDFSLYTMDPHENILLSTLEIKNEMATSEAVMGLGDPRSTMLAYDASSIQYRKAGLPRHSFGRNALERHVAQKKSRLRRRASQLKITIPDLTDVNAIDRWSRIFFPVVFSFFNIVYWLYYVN
T2 sequence (P22723 39-474): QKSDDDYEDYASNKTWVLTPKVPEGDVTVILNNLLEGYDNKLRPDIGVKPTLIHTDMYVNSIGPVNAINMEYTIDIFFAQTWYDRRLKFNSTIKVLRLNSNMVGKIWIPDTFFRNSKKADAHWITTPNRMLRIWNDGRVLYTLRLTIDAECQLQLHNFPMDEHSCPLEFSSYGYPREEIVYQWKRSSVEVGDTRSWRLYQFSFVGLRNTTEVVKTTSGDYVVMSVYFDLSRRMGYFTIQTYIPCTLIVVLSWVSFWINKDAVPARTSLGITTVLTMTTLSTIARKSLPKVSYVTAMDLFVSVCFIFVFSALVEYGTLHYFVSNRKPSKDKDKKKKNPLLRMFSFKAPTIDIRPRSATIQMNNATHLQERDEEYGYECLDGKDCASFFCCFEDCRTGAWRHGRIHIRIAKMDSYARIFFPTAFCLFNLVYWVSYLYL
T7 sequence (P62812 28-455): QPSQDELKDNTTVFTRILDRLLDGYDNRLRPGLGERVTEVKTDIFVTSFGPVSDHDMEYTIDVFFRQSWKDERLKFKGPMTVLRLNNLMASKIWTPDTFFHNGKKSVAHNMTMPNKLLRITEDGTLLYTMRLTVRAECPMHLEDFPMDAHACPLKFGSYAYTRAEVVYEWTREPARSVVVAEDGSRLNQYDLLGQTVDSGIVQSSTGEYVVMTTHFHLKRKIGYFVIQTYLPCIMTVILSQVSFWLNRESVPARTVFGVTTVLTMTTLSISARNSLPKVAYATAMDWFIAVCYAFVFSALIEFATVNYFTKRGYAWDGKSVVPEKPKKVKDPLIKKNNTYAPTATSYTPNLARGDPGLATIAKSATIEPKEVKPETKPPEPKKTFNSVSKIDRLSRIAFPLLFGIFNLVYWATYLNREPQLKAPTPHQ
T7 sequence (P63137 26-512): as the sequence (P63137 26-512) above
T7 sequence (P22723 39-474): as the sequence (P22723 39-474) above
T1 sequence (P16305 20-453): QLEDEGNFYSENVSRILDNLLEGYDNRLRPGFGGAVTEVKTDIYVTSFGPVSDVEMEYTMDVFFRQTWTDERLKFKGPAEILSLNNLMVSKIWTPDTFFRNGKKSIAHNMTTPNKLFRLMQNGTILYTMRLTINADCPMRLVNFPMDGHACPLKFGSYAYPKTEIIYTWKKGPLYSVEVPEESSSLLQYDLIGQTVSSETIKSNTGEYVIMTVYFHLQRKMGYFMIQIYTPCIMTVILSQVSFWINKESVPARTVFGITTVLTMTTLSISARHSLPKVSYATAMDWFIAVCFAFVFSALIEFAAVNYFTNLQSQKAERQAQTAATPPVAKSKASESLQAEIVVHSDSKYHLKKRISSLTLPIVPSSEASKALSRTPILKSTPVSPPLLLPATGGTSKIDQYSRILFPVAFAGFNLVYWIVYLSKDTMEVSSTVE
T1 sequence (P63137 26-512): as the sequence (P63137 26-512) above
T1 sequence (P22933 25-449): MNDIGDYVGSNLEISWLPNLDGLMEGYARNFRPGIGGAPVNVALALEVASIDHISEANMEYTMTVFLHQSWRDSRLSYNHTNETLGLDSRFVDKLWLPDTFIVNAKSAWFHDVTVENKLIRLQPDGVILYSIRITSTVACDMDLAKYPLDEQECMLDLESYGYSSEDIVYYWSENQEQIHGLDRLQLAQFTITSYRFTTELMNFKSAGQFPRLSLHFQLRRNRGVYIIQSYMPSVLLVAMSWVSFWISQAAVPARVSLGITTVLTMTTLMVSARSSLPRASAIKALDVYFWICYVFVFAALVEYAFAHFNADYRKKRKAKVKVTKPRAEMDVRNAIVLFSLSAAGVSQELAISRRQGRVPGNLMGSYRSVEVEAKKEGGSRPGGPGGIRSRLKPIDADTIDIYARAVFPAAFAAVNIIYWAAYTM
T14 sequence (P26048 29-451): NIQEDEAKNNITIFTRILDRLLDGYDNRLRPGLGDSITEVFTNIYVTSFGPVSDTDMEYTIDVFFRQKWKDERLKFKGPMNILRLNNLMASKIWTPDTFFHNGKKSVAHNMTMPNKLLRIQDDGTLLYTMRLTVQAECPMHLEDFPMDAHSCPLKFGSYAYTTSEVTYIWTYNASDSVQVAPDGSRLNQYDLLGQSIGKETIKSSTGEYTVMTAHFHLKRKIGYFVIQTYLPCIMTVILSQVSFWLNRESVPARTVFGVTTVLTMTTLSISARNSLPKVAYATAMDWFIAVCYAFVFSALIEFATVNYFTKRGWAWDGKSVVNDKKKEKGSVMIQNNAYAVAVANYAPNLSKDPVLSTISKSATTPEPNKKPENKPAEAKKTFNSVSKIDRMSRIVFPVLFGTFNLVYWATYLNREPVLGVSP
T14 sequence (P63137 26-512): as the sequence (P63137 26-512) above
T14 sequence (P22723 39-474): as the sequence (P22723 39-474) above
T12 sequence (P63080 26-473): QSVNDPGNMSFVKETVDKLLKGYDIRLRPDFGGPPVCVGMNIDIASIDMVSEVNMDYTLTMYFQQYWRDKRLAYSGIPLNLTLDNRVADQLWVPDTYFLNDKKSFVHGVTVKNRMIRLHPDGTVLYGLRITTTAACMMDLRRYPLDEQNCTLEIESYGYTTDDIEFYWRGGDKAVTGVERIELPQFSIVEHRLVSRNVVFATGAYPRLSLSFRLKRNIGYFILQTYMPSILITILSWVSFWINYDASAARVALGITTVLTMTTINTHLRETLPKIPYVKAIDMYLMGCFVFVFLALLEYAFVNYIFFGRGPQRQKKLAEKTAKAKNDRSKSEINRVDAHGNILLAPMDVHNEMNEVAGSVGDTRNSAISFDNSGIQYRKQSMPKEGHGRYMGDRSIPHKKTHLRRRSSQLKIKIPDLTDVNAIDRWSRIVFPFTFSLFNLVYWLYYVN
T8 sequence (P62812 28-455): as the sequence (P62812 28-455) above
T8 sequence (P63137 26-512): as the sequence (P63137 26-512) above
T4 sequence (P62812 28-455): as the sequence (P62812 28-455) above
T4 sequence (P63080 26-473): as the sequence (P63080 26-473) above
T4 sequence (P22723 39-474): as the sequence (P22723 39-474) above
T3 sequence (Q8BHJ7 26-463): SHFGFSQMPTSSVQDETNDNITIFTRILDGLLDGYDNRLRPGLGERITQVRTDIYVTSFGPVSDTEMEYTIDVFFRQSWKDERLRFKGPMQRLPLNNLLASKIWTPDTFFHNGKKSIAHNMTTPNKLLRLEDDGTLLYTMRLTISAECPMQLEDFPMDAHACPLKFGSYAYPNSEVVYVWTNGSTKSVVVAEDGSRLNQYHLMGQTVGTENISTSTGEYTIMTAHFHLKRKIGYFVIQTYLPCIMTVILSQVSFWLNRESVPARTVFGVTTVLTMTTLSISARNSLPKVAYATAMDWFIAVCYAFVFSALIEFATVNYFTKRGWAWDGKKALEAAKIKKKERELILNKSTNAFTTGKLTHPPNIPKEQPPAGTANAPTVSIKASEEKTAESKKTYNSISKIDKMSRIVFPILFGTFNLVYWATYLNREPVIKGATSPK
T3 sequence (P63137 26-512): as the sequence (P63137 26-512) above
T3 sequence (P22723 39-474): as the sequence (P22723 39-474) above
T13 sequence (P62812 28-455 V283S): as the sequence (P62812 28-455) above, with V256S counted along it
T13 sequence (P63137 26-512): as the sequence (P63137 26-512) above
T13 sequence (P22723 39-474): as the sequence (P22723 39-474) above

NCCCC(=O)O [GABA] gave an EC50 (α6β2δ [1]) of 200 ± 20 nM and an EC50 (α3β2γ2L [2]) of 64600 ± 14300 nM.
Work on CC(=O)[C@H]1CC[C@H]2[C@@H]3CC=C4C[C@@H](OS(=O)(=O)O)CC[C@]4(C)[C@H]3CC[C@]12C [pregnenolone sulphate] yielded an IC50 (α5β2γ2L) of 700 ± 100 nM, an IC50 (α1β3γ2L) of 1000 ± 80 nM and an IC50 (α6β2δ [3]) of 1300 ± 100 nM. It also gave an IC50 (ρ1 [4]) of 6000 ± 600 nM, an IC50 (α4β2δ) of 1300 ± 100 nM and an IC50 (α1β2γ2L [5]) of 400 ± 50 nM. For the same molecule, the IC50 (α1β2) was 1300 ± 70 nM, the “% of control peak current at 100 μM PS” value (ρ1-260-γ2S) was 39.2 ± 5.1% and the IC50 (ρ1 [6]) was greater than 300000 nM. The IC50 (ρ1-260-α1) was 7900 ± 1700 nM, the “whole-cell patch clamp, HEK cells” value (β3 homomer) was “neurosteroid caused a concentration-dependent block of the PB-induced peak current” and the IC50 (α3β2γ2L [7]) was 600 ± 50 nM. The IC50 (α1β2γ2L [8]) was 35500 ± 8200 nM and the IC50 (α2β2γ2L) was 400 ± 50 nM.
For picrotoxinin, the “% of control peak current at 10 μM PTX” value (α1β2γ2L [9]) was 37.3 ± 8.1%.
